The source of these data is US6348468B1, “Pyridazine compounds and compositions containing the same” (Kowa Co., Ltd., priority 1997, dated 2002).

The test system of data set [1] is Interleukin-1β (IL-1β) Production. Kind of data set: Inhibitory activity against interleukin-1β production (LPS-stimulated HL-60 cells, ELISA). The format is cell-based. Particulars: Homo sapiens, 72 h, lipopolysaccharide 10 μg/ml, culturing for 3 days. The protocol:
HL-60 cells were cultured for 4 days until confluence on RPMI 1640 medium with 10% fetal bovine serum (FBS) added thereto. The HL-60 cells were centrifuged. The supernatant was discarded, and the cells were then suspended at 1×10^6 cells/ml on RPMI 1640 medium with 3% FBS, and lipopolysaccharide was added to give a final concentration of 10 μg/ml. The culture was inoculated at 1 ml/well to a 24-well plate. A test sample was added at 1 μl/well, followed by culturing for 3 days. Three days later, the amount of interleukin-1β in each of the cultures was measured by ELISA. Its IC50 value was determined by a comparison in yield with a control to which no test sample was added.

Molecules are shown by their SMILES.

As to `COc1ccc(-c2cc(=O)n(CCN(C)C)nc2-c2ccc(OC)cc2)cc1` [Comp. Comp'd 3, reference compound], the IC50 (usually the concentration that inhibits the measured activity by half) in data set [1] is above 100000 nM.

`COc1ccc(-c2cc(=O)[nH]nc2-c2ccc(OC)cc2)cc1` [Comp. Comp'd 4, reference compound] showed a half-maximal inhibitory concentration (IC50) in data set [1] of 31600 nM.

Turning to `COc1ccc(-c2cc(=O)n(CC=Cc3ccc(Cl)cc3)nc2-c2ccc(OC)cc2)cc1` [Example 12, 5,6-bis(4-methoxyphenyl)-2-(4-chlorocinnamyl)-2H-pyridazin-3-one], it took 100 nM to reach half-maximal inhibition in data set [1] (IC50).

With `COc1ccc(-c2cc(=O)n(Cc3ccccc3)nc2-c2ccc(OC)cc2)cc1` [Example 13, 5,6-bis(4-methoxyphenyl)-2-benzyl-2H-pyridazin-3-one], the half-inhibitory concentration (IC50) in data set [1] is 260 nM.

In data set [1], `COc1ccc(Cn2nc(-c3ccc(OC)cc3)c(-c3ccc(OC)cc3)cc2=O)cc1` [Example 14, 5,6-bis(4-methoxyphenyl)-2-(4-methoxybenzyl)-2H-pyridazin-3-one] returned an IC50 of 94 nM.

In data set [1], `COc1ccc(-c2cc(=O)n(Cc3cc(OC)c(OC)c(OC)c3)nc2-c2ccc(OC)cc2)cc1` [Example 16, 5,6-bis(4-methoxyphenyl)-2-(3,4,5-trimethoxybenzyl)-2H-pyridazin-3-one] showed an IC50 of 230 nM. Compared with the last compound, the IC50 is about 2.4-fold higher.

`COc1ccc(-c2cc(=O)n(CCCc3ccccc3)nc2-c2ccc(OC)cc2)cc1` [Example 19, 5,6-bis(4-methoxyphenyl)-2-(3-phenylpropyl)-2H-pyridazin-3-one] displayed an IC50 in data set [1] of 79 nM.

The compound `COc1ccc(CCCn2nc(-c3ccc(OC)cc3)c(-c3ccc(OC)cc3)cc2=O)cc1` [Example 23, 5,6-bis(4-methoxyphenyl)-2-[3-(4-methoxyphenyl)propyl]-2H-pyridazin-3-one] came in with a concentration for half-maximal inhibition (IC50) in data set [1] of 360 nM.

In data set [1], `COc1ccc(-c2cc(=O)n(CC=Cc3ccc(C)cc3)nc2-c2ccc(OC)cc2)cc1` [Example 24, 5,6-bis(4-methoxyphenyl)-2-(4-methylcinnamyl)-2H-pyridazin-3-one] gave an IC50 of 200 nM.

Take `COc1ccc(-c2cc(=O)n(CCCc3ccc(C)cc3)nc2-c2ccc(OC)cc2)cc1` [Example 25, 5,6-bis(4-methoxyphenyl)-2-[3-(4-methylphenyl)propyl]-2H-pyridazin-3-one]: the IC50 in data set [1] amounted to 180 nM.

In data set [1], `COc1ccc(-c2cc(=O)n(Cc3ccc(F)cc3)nc2-c2ccc(OC)cc2)cc1` [Example 26, 5,6-bis(4-methoxyphenyl)-2-(4-fluorobenzyl)-2H-pyridazin-3-one] had an IC50 of 150 nM.

Compound `COc1ccc(-c2cc(=O)n(Cc3ccc(F)cc3F)nc2-c2ccc(OC)cc2)cc1` [Example 27, 5,6-bis(4-methoxyphenyl)-2-(2,4-difluorobenzyl)-2H-pyridazin-3-one] showed an IC50 in data set [1] of 180 nM.

The compound `COc1ccc(-c2cc(=O)n(Cc3ccc(OC)c(F)c3)nc2-c2ccc(OC)cc2)cc1` [Example 28, 5,6-bis(4-methoxyphenyl)-2-(3-fluoro-4-methoxybenzyl)-2H-pyridazin-3-one] displayed an IC50 in data set [1] of 290 nM. This IC50 lies about 1.6-fold higher than the previous one.

The compound `COc1ccc(-c2cc(=O)n(CC=Cc3ccc(F)cc3)nc2-c2ccc(OC)cc2)cc1` [Example 30, 5,6-bis(4-methoxyphenyl)-2-(4-fluorocinnamyl)-2H-pyridazin-3-one] had an IC50 in data set [1] of 170 nM.

`COc1ccc(-c2cc(=O)n(CC=Cc3ccc(F)cc3F)nc2-c2ccc(OC)cc2)cc1` [Example 31, 5,6-bis(4-methoxyphenyl)-2-(2,4-difluorocinnamyl)-2H-pyridazin-3-one]: in data set [1], half-maximal inhibition (IC50) required 95 nM.

`COc1ccc(-c2cc(=O)n(Cc3ccc(Cl)c(Cl)c3)nc2-c2ccc(OC)cc2)cc1` [Example 35, 5,6-bis(4-methoxyphenyl)-2-(3,4-dichlorobenzyl)-2H-pyridazin-3-one]: the IC50 in data set [1] was 210 nM.

In data set [1], `COc1ccc(-c2cc(=O)n(CC=Cc3ccc(Cl)cc3Cl)nc2-c2ccc(OC)cc2)cc1` [Example 40, 5,6-bis(4-methoxyphenyl)-2-(2,4-dichlorocinnamyl)-2H-pyridazin-3-one] had an IC50 of 270 nM.

`CS(=O)(=O)c1ccc(-c2nn(Cc3ccccc3)c(=S)cc2-c2ccc(F)cc2)cc1` [Example 139, 2-benzyl-5-(4-fluorophenyl)-6-[4-(methylsulfonyl)phenyl]-2H-pyridazine-3-thione]: the melting point (commonly the temperature, or range, at which the solid turns liquid) lay in the range of 181.8 to 182 °C.

Consider `COc1ccc(Cn2nc(-c3ccc(SC)cc3)c(-c3ccc(F)cc3)cc2=S)cc1` [Example 140, 5-(4-fluorophenyl)-2-(4-methoxybenzyl)-6-(4-(methylthio)phenyl]-2H-pyridazine-3-thione], for which the melting point lay in the range of 112.7 to 112.9 °C.

For the compound `CSc1ccc(-c2nn(Cc3ccc(Cl)cc3Cl)c(=S)cc2-c2ccc(F)cc2)cc1` [Example 141, 2-(2,4-dichlorobenzyl)-5-(4-fluorophenyl)-6-[4-(methylthio)phenyl]-2H-pyridazine-3-thione], the melting point is 154 to 154.2 °C.

For `COc1ccc(-c2cc(=O)n(Cc3ccccc3)nc2-c2ccc(OC)c(F)c2)cc1` [Example 144, 2-benzyl-6-(3-fluoro-4-methoxyphenyl)-5-(4-methoxyphenyl)-2H-pyridazin-3-one], the melting point lay in the range of 136.6 to 137.8 °C.

The compound `COc1ccc(-c2cc(=O)n(CC=Cc3ccc(Cl)cc3)nc2-c2ccc(OC)c(F)c2)cc1` [Example 145, 2-(4-chlorocinnamyl)-6-(3-fluoro-4-methoxyphenyl)-5-(4-methoxyphenyl)-2H-pyridazin-3-one] returned a melting point of 144 to 145.4 °C.

As for `CCn1nc(-c2ccc(OC)c(F)c2)c(-c2ccc(OC)cc2)cc1=O` [Example 146, 2-ethyl-6-(3-fluoro-4-methoxyphenyl)-5-(4-methoxyphenyl)-2H-pyridazin-3-one], the melting point fell in the range of 122.6 to 123.5 °C.

`COc1ccc(-c2cc(=O)n(CC(C)C)nc2-c2ccc(OC)c(F)c2)cc1` [Example 147, 6-(3-fluoro-4-methoxyphenyl)-2-isobutyl-5-(4-methoxyphenyl)-2H-pyridazin-3-one] gave a melting point of 86.8 to 87.4 °C.

`COc1ccc(-c2cc(=O)n(CC3CC3)nc2-c2ccc(OC)c(F)c2)cc1` [Example 148, 2-cyclopropylmethyl-6-(3-fluoro-4-methoxyphenyl)-5-(4-methoxyphenyl)-2H-pyridazin-3-one] came in with a melting point of 132.2 to 132.6 °C.

On to `COc1ccc(C2=NNC(=O)CC2c2ccc(OC)c(F)c2)cc1` (centres unmarked) [Example 149, 4,5-dihydro-5-(3-fluoro-4-methoxyphenyl)-6-(4-methoxyphenyl)-2H-pyridazin-3-one], for which the melting point lay within 171.2 to 173.4 °C.

For the compound `COc1ccc(-c2n[nH]c(=O)cc2-c2ccc(OC)c(F)c2)cc1` [Example 150, 5-(3-fluoro-4-methoxyphenyl)-6-(4-methoxyphenyl)-2H-pyridazin-3-one], the melting point fell in the range of 212.8 to 213.4 °C.

The compound `COc1ccc(-c2nn(Cc3ccccc3)c(=O)cc2-c2ccc(OC)c(F)c2)cc1` [Example 151, 2-benzyl-5-(3-fluoro-4-methoxyphenyl)-6-(4-methoxyphenyl)-2H-pyridazin-3-one] displayed a melting point of 109.6 to 111.6 °C.

Consider `COc1ccc(-c2nn(CC=Cc3ccc(Cl)cc3)c(=O)cc2-c2ccc(OC)c(F)c2)cc1` [Example 152, 2-(4-chlorocinnamyl)-5-(3-fluoro-4-methoxyphenyl)-6-(4-methoxyphenyl)-2H-pyridazin-3-one], for which the melting point is 109.2 to 111 °C.

On to `CCn1nc(-c2ccc(OC)cc2)c(-c2ccc(OC)c(F)c2)cc1=O` [Example 153, 2-ethyl-5-(3-fluoro-4-methoxyphenyl)-6-(4-methoxyphenyl)-2H-pyridazin-3-one], for which the melting point was in the range of 161.7 to 162.2 °C.

Turning to `COc1ccc(-c2nn(CC(C)C)c(=O)cc2-c2ccc(OC)c(F)c2)cc1` [Example 154, 5-(3-fluoro-4-methoxyphenyl)-2-isobutyl-6-(4-methoxyphenyl)-2H-pyridazin-3-one], the melting point is 124.6 to 125 °C.

In the case of `COc1ccc(-c2nn(CC3CC3)c(=O)cc2-c2ccc(OC)c(F)c2)cc1` [Example 155, 2-cyclopropylmethyl-5-(3-fluoro-4-methoxyphenyl)-6-(4-methoxyphenyl)-2H-pyridazin-3-one], the melting point fell in the range of 135.2 to 135.7 °C.

The compound `COc1ccc(C2=NNC(=O)CC2c2ccc(OC)c(F)c2)cc1F` (centres unmarked) [Example 156, 5,6-bis(3-fluoro-4-methoxyphenyl)-4,5-dihydro-2H-pyridazin-3-one] returned a melting point of 195.7 to 197.7 °C.

In the case of `COc1ccc(-c2cc(=O)[nH]nc2-c2ccc(OC)c(F)c2)cc1F` [Example 157, 5,6-bis(3-fluoro-4-methoxyphenyl)-2H-pyridazin-3-one], the melting point was 204.8 to 205.7 °C.

As for `COc1ccc(-c2cc(=O)n(Cc3ccccc3)nc2-c2ccc(OC)c(F)c2)cc1F` [Example 158, 2-benzyl-5,6-bis(3-fluoro-4-methoxyphenyl)-2H-pyridazin-3-one], the melting point was 114.1 to 115.2 °C.

As for `COc1ccc(-c2cc(=O)n(CC=Cc3ccc(Cl)cc3)nc2-c2ccc(OC)c(F)c2)cc1F` [Example 159, 5,6-bis(3-fluoro-4-methoxyphenyl)-2-(4-chlorocinnamyl)-2H-pyridazin-3-one], the melting point is 72.5 to 74.9 °C.

`COc1ccc(-c2cc(=O)n(CC(C)C)nc2-c2ccc(OC)c(F)c2)cc1F` [Example 161, 5,6-bis(3-fluoro-4-methoxyphenyl)-2-isobutyl-2H-pyridazin-3-one] displayed a melting point of 154 to 154.5 °C.

Regarding `COc1ccc(-c2cc(=O)n(CC3CC3)nc2-c2ccc(OC)c(F)c2)cc1F` [Example 162, 5,6-bis(3-fluoro-4-methoxyphenyl)-2-cyclopropylmethyl-2H-pyridazin-3-one], the melting point is 142.3 to 142.7 °C.
